Measured values from article PMC3558932 (Chemistry & biology, 2013).

Columns and labels:
[1] = molecular target: Rv0036c (Mycobacterium tuberculosis, UniProt P9WM91)
[2] = molecular target: Rv0831c (Mycobacterium tuberculosis, UniProt O53842)
[3] = molecular target: Rv0282 (Mycobacterium tuberculosis, UniProt P9WPI3); conditions: 20 uM probe, lysate in PBS, 37 °C, 1 h; covalent
[4] = molecular target: Rv0941c (Mycobacterium tuberculosis, UniProt P71568); conditions: 20 uM probe, lysate in PBS, 37 °C, 1 h; covalent

Chain of Rv0036c (P9WM91 whole entry): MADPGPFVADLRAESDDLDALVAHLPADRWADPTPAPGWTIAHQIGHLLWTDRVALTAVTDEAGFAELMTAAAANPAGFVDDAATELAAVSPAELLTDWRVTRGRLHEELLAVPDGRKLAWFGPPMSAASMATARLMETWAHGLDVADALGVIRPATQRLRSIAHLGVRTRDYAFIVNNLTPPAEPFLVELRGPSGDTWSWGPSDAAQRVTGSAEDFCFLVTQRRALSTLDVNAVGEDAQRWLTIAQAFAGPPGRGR
Chain of Rv0282 (P9WPI3 whole entry, looked up): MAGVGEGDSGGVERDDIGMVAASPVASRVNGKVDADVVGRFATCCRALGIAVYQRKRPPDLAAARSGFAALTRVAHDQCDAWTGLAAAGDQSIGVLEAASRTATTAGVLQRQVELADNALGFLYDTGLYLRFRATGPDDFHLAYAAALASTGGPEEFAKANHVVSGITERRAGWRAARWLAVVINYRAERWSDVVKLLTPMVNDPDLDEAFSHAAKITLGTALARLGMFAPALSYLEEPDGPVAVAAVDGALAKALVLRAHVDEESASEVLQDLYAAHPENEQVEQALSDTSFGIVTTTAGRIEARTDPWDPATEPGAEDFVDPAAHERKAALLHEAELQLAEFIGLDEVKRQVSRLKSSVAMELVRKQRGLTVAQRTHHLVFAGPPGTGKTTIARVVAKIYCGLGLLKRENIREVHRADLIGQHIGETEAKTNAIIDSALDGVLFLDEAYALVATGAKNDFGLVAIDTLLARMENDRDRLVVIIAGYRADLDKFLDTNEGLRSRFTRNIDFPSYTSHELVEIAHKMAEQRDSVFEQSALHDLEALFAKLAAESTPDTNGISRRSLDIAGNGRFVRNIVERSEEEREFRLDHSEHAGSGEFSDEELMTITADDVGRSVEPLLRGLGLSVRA

| Compound | competition with ATP-ABP labelling, gel fluorescence [1] | competition with ATP-ABP labelling, gel fluorescence [2] | fold enrichment over negative control [3] [fold] | fold enrichment over control [4] [fold] |
| --- | --- | --- | --- | --- |
| Nc1ncnc2c1ncn2[C@@H]1O[C@H](COP(=O)(O)OP(=O)(O)OP(=O)(O)O)[C@@H](O)[C@H]1O [ATP] | ATP and ATPγS competed with probe binding | ATP and ATPγS competed with probe binding |  |  |
| Nc1ncnc2c1ncn2[C@@H]1O[C@H](COP(=O)(O)OP(=O)(O)OP(O)(O)=S)[C@@H](O)[C@H]1O [ATPγS] | ATP and ATPγS competed with probe binding | ATP and ATPγS competed with probe binding |  |  |
| ATP-ABP |  |  | 4 | 15 |
